Results from ChEMBL document CHEMBL4007480, “Synthesis of novel 1,2,4-triazine scaffold as FAK inhibitors with antitumor activity” (Bioorg Med Chem Lett, 2017).

Assays:
[1] = system: HCT-116; assay: Inhibition of colony formation in human HCT116 cells
[2] = system: U-87 MG; conditions: Homo sapiens; U-87MG ATCC
[3] = system: HCT-116; assay: Cytotoxicity against human HCT116 cells assessed as reduction in cell viability by WST1 assay
[4] = system: U-87 MG; assay: Inhibition of colony formation in human U87MG cells
[5] = system: U-87 MG; assay: Cytotoxicity against human U87MG cells assessed as reduction in cell viability by WST1 assay

| Structure (SMILES) | IC50 [1] | inhibition [2] | IC50 [3] | IC50 [4] | IC50 [5] |
| --- | --- | --- | --- | --- | --- |
| COc1cc(Nc2nnc(Cl)c(Nc3cccc(NS(C)(=O)=O)c3)n2)cc(OC)c1OC | 60 nM | Dose-dependent effect | 14800 nM | 70 nM | 12500 nM |
| CNC(=O)c1ccccc1Nc1nc(Nc2ccc(N3CCOCC3)cc2OC)nnc1Cl | 1000 nM | Dose-dependent effect | 190 nM | 1500 nM | 13300 nM |
| CNC(=O)c1ccccc1Nc1nc(Nc2cc(C)c(Cl)cc2OC)nnc1Cl | 4500 nM | Dose-dependent effect | 5800 nM | 500 nM | 9200 nM |
| CNC(=O)c1ccccc1Nc1nc(Nc2ccc(N3CCOCC3)cc2OC)ncc1Cl | 270 nM | – | 390 nM | 170 nM | 1300 nM |
| CNC(=O)c1ccccc1Nc1nc(Nc2cc(OC)c(OC)c(OC)c2)nnc1Cl | 2100 nM | Dose-dependent effect | 14900 nM | 1700 nM | 17000 nM |
| CNC(=O)c1ccccc1Nc1nc(Nc2ccc(CN)cc2)nnc1Cl | 1100 nM | Dose-dependent effect | 1800 nM | 14 nM | 2400 nM |
| CNC(=O)c1ccccc1Nc1nc(Nc2ccc(N3CCOCC3)cc2)nnc1Cl | 1700 nM | Dose-dependent effect | 500 nM | 700 nM | 10100 nM |
